Test results taken from patent US20240307409A1, “ARGININE METHYLTRANSFERASE INHIBITOR AND USE THEREOF” (Cytosinlab Therapeutics Co., Ltd., priority 2021, published 2024).

How the values were obtained:
Toledo cells = test: Toledo cell proliferation inhibition assay; format: cell-based; conditions: six-day assay, CellTiter-Glo
Description: • A. Purpose: to determine the effects of compounds on Toledo cells through a six-day cell proliferation assay. • B. Reagents and materials: • 1. Cell culture medium: RPMI 1640+10% FBS • 2. 384-well cell culture plate (Corning, item #3764) • 3. 0.4% Taipan Blue Staining Solution (Thermo Fisher, item #T10282) • 4. cell counting plate (Thermo Fisher, item #C10228) • 5. 50 ml reagent reservoir (Corning, item #4870) • 6. 50 ml conical sterile polypropylene centrifuge tube (Thermo Fisher, item #339653) • 7. Automatic cell counter (Thermo Fisher, item #AMQAX1000) • 8. CellTiter-Glo Luminescent Cell Viability Detection Reagent (Promega, item #G7572) • 9. SpectraMax i3x Multi-Mode Enzyme Labeling Instrument (Megaman Molecular Instruments, item #5024062) • C. Experimental method • 1. Resuspending the cells with a pipette. • 2. 0.4% Taipan blue staining solution and Toledo cells were mixed in equal proportion, and the cells were counted using an automatic cell counter. • 3. Toledo cells were diluted to a final concentration of 2000 cells per well and transferred to a 50 ml reagent reservoir. • 4. Diluted Toledo cells were added to a 384-well cell culture plate, 40 ul per well. • 5. The cells were shortly centrifuged and settled. • 6. The cells were incubated in a 37° C., 5% CO2 cell culture incubator. • 7. The substrate in the CellTiter-Glo Luminescent Cell Viability Detection Reagent was mixed with the solution. • 8. After six days, the 384-well cell culture plate was taken from the incubator and 20 ul of configured CellTiter-Glo reagent was added to each well. • 9. 384-well cell culture platewasmixed in an orbital shaker for 30 minutes. • 10. Signal of luminescence was detected with a SpectraMax i3x multi-mode enzyme labeling instrument.

PRMT1 = PRMT1 (Homo sapiens, UniProt Q99873); test: PRMT1 enzyme activity test; format: biochemical; conditions: 0.5 nM PRMT1, 3H-SAM, peptide
Chain of PRMT1 (Q99873 whole entry): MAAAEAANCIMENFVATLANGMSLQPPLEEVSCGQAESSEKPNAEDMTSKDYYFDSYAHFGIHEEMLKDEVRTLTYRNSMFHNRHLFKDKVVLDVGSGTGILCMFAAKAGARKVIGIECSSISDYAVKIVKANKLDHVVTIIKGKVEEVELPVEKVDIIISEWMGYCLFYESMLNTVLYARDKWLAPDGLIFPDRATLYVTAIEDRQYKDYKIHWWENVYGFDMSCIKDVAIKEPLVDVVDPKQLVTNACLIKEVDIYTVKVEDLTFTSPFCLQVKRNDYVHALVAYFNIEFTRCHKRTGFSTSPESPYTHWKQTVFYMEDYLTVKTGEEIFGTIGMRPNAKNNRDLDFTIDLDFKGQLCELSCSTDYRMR
Description: PRMT1 enzyme activity test were performed in a buffer prepared on the same day 5 consisting of 10 mMTirs-HCl (pH=8.0), 0.01% Tween-20 and 1 mM DTT. The compounds were prepared to the highest inhibitor concentration ultimately required in the 100× reaction with 100% DMSO and then transferred to one well of a 384-well Echo plate (Echo-eligible 384-well polypropylene microplates 2.0, transparent, flat-bottomed) and sequentially diluted in the next well with a 3-fold dilution of 100% DMSO, and so on, with a total of 10 concentrations based on Precision. 100% DMSO was added to two empty wells to serve as control well without compound and control well without enzyme in the same 384-well Echo plate. 250 nL of compound was transferred from each well of the 384-well Echo plate to a 384-well assay plate (384-well polypropylene storage microplate) via the Echo 550 liquid processor. For wells with compounds and control well without compound, a mixture (15 uL) containing PRMT1 enzyme was added to the 384-well assay plate. For control wells without enzyme, the mixture containing the assay buffer (15 uL) was added instead. The compounds were allowed to incubate with PRMT1 for 15 minutes at room temperature, and then a mixture containing ^3H-SAM and peptide (10 uL) was added to start the reaction (final volume=25 uL). The final concentrations of the components were as follows: 0.5 nM for PRMT1, 0.25 uM for ^3H-SAM, 0.1 uM for the peptide, and 1% DMSO. After 120 min of incubation, the assay was terminated by the addition of non-radiolabeled SAM (5 uL) to a final concentration of 125 uM, which diluted 3H-SAM to a level at which its incorporation into the peptide substrate was no longer detected. 25 μL of the reaction solution from the 384-well assay plate was then transferred to a 384-well detection plate (Streptavidin FlashPlate HTS PLUS, high volume, 384 wells). The biotinylated peptide was allowed to bind to the surface of the antibiotic protein streptavidin for at least 60 minutes at room temperature. The Flashplate was then washed three times with 0.1% Tween-20 in a BioTek plate washer. Plates were read on a microplate counter (MicroBeta2) to measure the amount of ^3H-labeled peptide bound to the surface of the detection plate, measured in counts per minute (cpm).
The raw data were copied from the Reader and the inhibition values were calculated in Excel by Equation (1), Equation (1): Inh %=(CPMmax−CPMcmpd)/(CPMmax−CPMmin)*100, wherein the Max signal was obtained from the enzyme-substrate interaction and the Min signal was obtained from the substrate. IC50 values were obtained by fitting the data through equation (2) using XLFit add-in for Excel version […]. Equation (2): Y=Bottom+(Top-Bottom)/(1+((IC50/X)[…])), wherein, Y represents inhibition percentage and X represents compound concentration.

Row | Compound | IC50 (Toledo cells; Homo sapiens, Toledo, 144 h) | IC50 (PRMT1) | IC50 (Toledo cells)
1 | CNCCN(C)Cc1ccc(C)nc1C1CCN(c2cccc(NC)c2)CC1 [P162] | < 1000 nM | 50 to 500 nM | 
2 | CNCCN(C)Cc1ncccc1N1CCC(N2CCCC(C(=O)NC)C2)CC1 (stereo not drawn) [P276] | ≥ 5000 nM | ≥ 500 nM | 
3 | CNCCN(C)Cc1ccc(F)cc1C1CCc2nc3ccccc3nc2CC1 [P132] | < 1000 nM | < 50 nM | 
4 | CNCCN(C)Cc1ncccc1C1CCN(c2cccc(C(N)=O)c2)CC1 [P297] | ≥ 5000 nM | < 50 nM | 
5 | CNCCN(C)Cc1ccc(CC(N)=O)cc1C1CCN(c2cccc(C)c2)CC1 [P195] | < 1000 nM | < 50 nM | 
6 | CNCCN(C)Cc1ccc2[nH]ncc2c1C1CCN(c2cccc(C)c2)CC1 [P190, N^1,N^2-dimethyl-N^1-((4-(1-(m-tolyl)piperidin-4-yl)-1H-indazol-5-yl)methyl)ethane-1,2-dia mine] | < 1000 nM | < 50 nM | 
7 | CNCCN(C)Cc1ncccc1N1CCc2cnc(C)nc2CC1 [P291] | ≥ 5000 nM | < 50 nM | 
8 | CNCCN(C)Cc1nc(C)ccc1C1CCN(CCc2ccccc2)CC1 [P059] | 1000 to 5000 nM | < 50 nM | 
9 | CNCCN(C)Cc1ccc2[nH]nnc2c1C1CCN(c2cccc(C)c2)CC1 [P265] |  | < 50 nM | 
10 | CNCCN(C)Cc1ncccc1N1CCN(C(C)C)CC1 [P161] | < 1000 nM | < 50 nM | 
11 | Cc1cccc(N2CCC(c3nc(N)cnc3CN(C)CCN)CC2)c1 [P369] |  | < 50 nM | 
12 | CNCCN(C)Cc1ccncc1C1CCN(c2cccc(C)c2)CC1 [P097] | 1000 to 5000 nM | < 50 nM | 
13 | CNCCN(C)Cc1ncccc1C1CCN(CCOCCOCCOCCOCCOCCN2CCC(c3cccnc3CN(C)CCNC)CC2)CC1 [P257] |  | < 50 nM | 
14 | CCOC[C@H]1CC[C@@H](c2ccccc2CN(C)CCNC)CC1 [P048] | < 1000 nM | < 50 nM | 
15 | CNCCN(C)Cc1nc2ccccc2cc1C1CCN(c2cccc(C)c2)CC1 [P046] | 1000 to 5000 nM | < 50 nM | 
16 | CNCCN(C)Cc1ncccc1C1CCN(c2ccnc(C)n2)CC1 [P277] | < 1000 nM | < 50 nM | 
17 | CNCCN(C)Cc1ccc2[nH]cnc2c1C1CCN(c2cccc(C)c2)CC1 [P189] | < 1000 nM | < 50 nM | 
18 | CCOCC1(COCC)CCC(c2nc(N)ccc2CN(C)CCNC)CC1 [P293, N1-((6-amino-2-(4,4-bis(ethoxymethyl)cyclohexyl)pyridin-3-yl)methyl)-N1,N2-dimethyle thane-1,2-diamine] | < 1000 nM | 50 to 500 nM | 
19 | CNCCN(C)Cc1ccccc1C1CCC2(CC1)CC(C)(C)CO2 (stereo not drawn) [P040] |  | < 50 nM | < 1000 nM
20 | CNCCN(C)Cc1ncccc1C1CCN(c2ccncc2)CC1 [P215] | 1000 to 5000 nM | < 50 nM | 
21 | CNCCN(C)Cc1ccc(CN2CCCC2)nc1C1CCN(c2cccc(C)c2)CC1 [P361] |  | < 50 nM | 

Row | Compound | IC50 (Toledo cells; Homo sapiens, Toledo, 144 h) | IC50 (PRMT1) | IC50 (Toledo cells)
22 | CNCCN(C)Cc1ncccc1C1CCN(C)CC1 [P152] |  | < 50 nM | 
23 | CNCCN(C)Cc1ncccc1C1CCN(CC(F)(F)F)CC1 [P120] | 1000 to 5000 nM | < 50 nM | 
24 | CNCCN(C)Cc1ncccc1C1CCN(c2ccnnc2)CC1 [P289] |  | < 50 nM | 
25 | CNCCN(C)Cc1ncccc1C1CCN(c2ccc(S(C)(=O)=O)cc2)CC1 [P284] | 1000 to 5000 nM | < 50 nM | 
26 | CNCCN(C)Cc1ncccc1N1CCC(OCC(=O)NC)CC1 [P322] |  | < 50 nM | 
27 | CNCCN(C)Cc1ncccc1C1CCN(c2ccncn2)CC1 [P287] | < 1000 nM | < 50 nM | 
28 | CCN1CC2(CCC(c3cccnc3CN(C)CCNC)CC2)CC1=O (stereo not drawn) [P222] | ≥ 5000 nM | < 50 nM | 
29 | CNCCN(C)Cc1ccc(Nc2ncc[nH]2)nc1C1CCN(c2cccc(C)c2)CC1 [P355] |  | < 50 nM | 
30 | CNCCN(C)Cc1ccc(F)cc1[C@H]1CC[C@@H](Oc2cc(C(F)(F)F)cc(C(F)(F)F)c2)CC1 [P026] |  | ≥ 500 nM | 
31 | CNCCN(C)Cc1ncccc1C1CCCCO1 (stereo not drawn) [P247] |  | 50 to 500 nM | 
32 | CNCCN(C)Cc1ncccc1N1CCC(OCCOC)CC1 [P274] |  | < 50 nM | 
33 | CNCCN(C)Cc1ccc(NC(=O)N(C)C)nc1C1CCN(c2cccc(C)c2)CC1 [P363] |  | 50 to 500 nM | 
34 | CNCCN(C)Cc1ccc(NC(=O)NC)nc1C1CCN(c2cccc(C)c2)CC1 [P353] |  | < 50 nM | 
35 | CNCCN(C)Cc1ccc(=O)[nH]c1C1CCN(c2cccc(C)c2)CC1 [P211] |  | 50 to 500 nM | 
36 | CNCCN(C)Cc1cc(C(N)=O)ccc1C1CCN(c2cccc(C)c2)CC1 [P220] |  | 50 to 500 nM | 
37 | CNCCN(C)C(C)c1ccccc1N1CCc2cc(F)c(F)cc2CC1 (stereo not drawn) [P351] |  | 50 to 500 nM | 
38 | CNCCN(C)Cc1ccc(C)nc1C1CCN(c2cc(C)c(F)cc2F)CC1 [P062] |  | < 50 nM | 
39 | CNCCN(C)Cc1ccc(Nc2ccc(F)cc2)nc1C1CCN(c2cccc(C)c2)CC1 [P354] |  | 50 to 500 nM | 
40 | CNCCN(C)Cc1ncccc1C#Cc1cccc(C)c1 [P091] |  | ≥ 500 nM | 
41 | CNCCN(C)Cc1ncccc1N1CCC(O)CC1 [P294] |  | < 50 nM | 
42 | CNCCN(C)Cc1ccc2nncn2c1C1CCN(c2cccc(C)c2)CC1 [P232] |  | 50 to 500 nM | 

Row | Compound | IC50 (Toledo cells; Homo sapiens, Toledo, 144 h) | IC50 (PRMT1) | IC50 (Toledo cells)
43 | CNCCN(C)Cc1ccc(OC)nc1C1CCN(c2cccc(C)c2)CC1 [P352] |  | 50 to 500 nM | 
44 | CNCCN(C)Cc1ncccc1C1CCOCC1 [P245] |  | < 50 nM | 
45 | CNCCN(C)Cc1ccc(F)cc1C1CCc2ccc(C(F)(F)F)cc2CC1 (stereo not drawn) [P002] |  | < 50 nM | 
46 | Cc1cccc(N2CCC(c3nc(N)cnc3CN(C)CCN(C)C)CC2)c1 [P368] |  | 50 to 500 nM | 
47 | CNCCN(C)Cc1ncccc1C1CCCOC1 (stereo not drawn) [P246] |  | ≥ 500 nM | 
48 | CCOC(=O)c1cnc(Nc2ccc(CN(C)CCNC)c(C3CCN(c4cccc(C)c4)CC3)n2)[nH]1 [P367] |  | < 50 nM | 
49 | CNCCN(C)Cc1nc(N)cnc1C1CCN(c2cccc(C)c2)CC1 [P359] |  | 50 to 500 nM | 
50 | CNCCN(C)Cc1ccc(NCCNCC(=O)OC)nc1C1CCN(c2cccc(C)c2)CC1 [P362] |  | 50 to 500 nM | 
51 | CNCCN(C)Cc1ccc(NS(=O)(=O)N(C)C)nc1C1CCN(c2cccc(C)c2)CC1 [P365] |  | 50 to 500 nM | 
52 | CNCCN(C)Cc1ccc(N2CCOC2=O)nc1C1CCN(c2cccc(C)c2)CC1 [P360] |  | 50 to 500 nM | 
53 | CNCCN(C)Cc1ccc(F)cc1N1CCC(Oc2cc(C(F)(F)F)cc(C(F)(F)F)c2)CC1 [P032] |  | ≥ 500 nM | 
54 | CNCCN(C)Cc1ncccc1C1CCN(C(=O)C(C)C)CC1 [P235] |  | < 50 nM | 
55 | CNCCN(C)Cc1ncccc1C1CCN(C(C)(C)O)CC1 [P244] |  | < 50 nM | 
56 | CNCCN(C)Cc1ccc(NC)nc1C1CCN(c2cccc(C)c2)CC1 [P358] |  | < 50 nM | 
57 | CNCCN(C)Cc1ccccc1N1CCc2ccccc2C1 [P029] |  | < 50 nM | 
58 | CNCCN(C)Cc1ccc(NS(C)(=O)=O)nc1C1CCN(c2cccc(C)c2)CC1 [P357] |  | 50 to 500 nM | 
59 | CNCCN(C)Cc1ncccc1C1CCN(c2ccc(C(N)=O)cc2)CC1 [P299] |  | < 50 nM | 
60 | CNCCN(C)Cc1ccc(Nc2nc3ccccc3[nH]2)nc1C1CCN(c2cccc(C)c2)CC1 [P366] |  | < 50 nM | 
61 | NCCCCc1ccccc1N1CCc2cc(F)c(F)cc2CC1 [P350] |  | ≥ 500 nM | 
62 | CNCCN(C)Cc1ccc(-c2ncc[nH]2)cc1C1CCN(c2cccc(C)c2)CC1 [P154] |  | < 50 nM | 
63 | CNCCN(C)Cc1ncccc1N1CCc2ccc(S(C)(=O)=O)cc2CC1 [P295] |  | < 50 nM | 
